Data taken from the NIST ThermoML archive (doi:10.1021/je800110r).
Numbers after ± are expanded uncertainties.

Settings: 293.15 K, Liquid, Vibrating tube method

CCCCCCCCCC [decane]
mass density (19602 kPa): 743.9 ± 2 kg/m3
mass density (19616 kPa): 743.9 ± 2 kg/m3
mass density (19630 kPa): 743.8 ± 2 kg/m3
mass density (19643 kPa): 744 ± 2 kg/m3
mass density (19662 kPa): 744 ± 2 kg/m3
mass density (19678 kPa): 743.9 ± 2 kg/m3
mass density (19692 kPa): 744 ± 2 kg/m3
mass density (19712 kPa): 744 ± 2 kg/m3
mass density (19726 kPa): 744 ± 2 kg/m3
mass density (19742 kPa): 744 ± 2 kg/m3
mass density (19763 kPa): 744 ± 2 kg/m3
mass density (19775 kPa): 744 ± 2 kg/m3
mass density (19793 kPa): 744.1 ± 2 kg/m3
mass density (19810 kPa): 744.1 ± 2 kg/m3
mass density (19824 kPa): 744.2 ± 2 kg/m3
mass density (19838 kPa): 744.1 ± 2 kg/m3
mass density (19852 kPa): 744.1 ± 2 kg/m3
mass density (19866 kPa): 744.1 ± 2 kg/m3
mass density (19883 kPa): 744.1 ± 2 kg/m3
mass density (19897 kPa): 744.1 ± 2 kg/m3
mass density (19914 kPa): 744.2 ± 2 kg/m3
mass density (19935 kPa): 744.2 ± 2 kg/m3
mass density (19950 kPa): 744.2 ± 2 kg/m3
mass density (19969 kPa): 744.4 ± 2 kg/m3
mass density (19983 kPa): 744.2 ± 2 kg/m3
mass density (19999 kPa): 744.2 ± 2 kg/m3
mass density (20016 kPa): 744.2 ± 2 kg/m3
mass density (20035 kPa): 744.3 ± 2 kg/m3
mass density (20055 kPa): 744.2 ± 2 kg/m3
mass density (20072 kPa): 744.3 ± 2 kg/m3
mass density (20084 kPa): 744.3 ± 2 kg/m3
mass density (20103 kPa): 744.2 ± 2 kg/m3
mass density (20120 kPa): 744.2 ± 2 kg/m3
mass density (20137 kPa): 744.3 ± 2 kg/m3
mass density (20152 kPa): 744.2 ± 2 kg/m3
mass density (20165 kPa): 744.3 ± 2 kg/m3
mass density (20181 kPa): 744.2 ± 2 kg/m3
mass density (20196 kPa): 744.4 ± 2 kg/m3
mass density (20218 kPa): 744.4 ± 2 kg/m3
mass density (20233 kPa): 744.4 ± 2 kg/m3
mass density (20251 kPa): 744.3 ± 2 kg/m3
mass density (20263 kPa): 744.5 ± 2 kg/m3
mass density (20288 kPa): 744.3 ± 2 kg/m3
mass density (20306 kPa): 744.4 ± 2 kg/m3
mass density (20326 kPa): 744.3 ± 2 kg/m3
mass density (20343 kPa): 744.4 ± 2 kg/m3
mass density (20365 kPa): 744.5 ± 2 kg/m3
mass density (20383 kPa): 744.5 ± 2 kg/m3
mass density (20398 kPa): 744.5 ± 2 kg/m3
mass density (20413 kPa): 744.5 ± 2 kg/m3
mass density (20428 kPa): 744.5 ± 2 kg/m3
mass density (20450 kPa): 744.6 ± 2 kg/m3
mass density (20470 kPa): 744.5 ± 2 kg/m3
mass density (20485 kPa): 744.5 ± 2 kg/m3
mass density (20503 kPa): 744.6 ± 2 kg/m3
mass density (20519 kPa): 744.5 ± 2 kg/m3
mass density (20535 kPa): 744.6 ± 2 kg/m3
mass density (20555 kPa): 744.6 ± 2 kg/m3
mass density (20576 kPa): 744.6 ± 2 kg/m3
mass density (20591 kPa): 744.6 ± 2 kg/m3
mass density (20611 kPa): 744.6 ± 2 kg/m3
mass density (20636 kPa): 744.6 ± 2 kg/m3
mass density (20654 kPa): 744.6 ± 2 kg/m3
mass density (20670 kPa): 744.7 ± 2 kg/m3
mass density (20688 kPa): 744.8 ± 2 kg/m3
mass density (20711 kPa): 744.7 ± 2 kg/m3
mass density (20727 kPa): 744.6 ± 2 kg/m3
mass density (20743 kPa): 744.7 ± 2 kg/m3
mass density (20764 kPa): 744.6 ± 2 kg/m3
mass density (20785 kPa): 744.7 ± 2 kg/m3
mass density (20803 kPa): 744.7 ± 2 kg/m3
mass density (20822 kPa): 744.7 ± 2 kg/m3
mass density (20837 kPa): 744.9 ± 2 kg/m3
mass density (20856 kPa): 744.7 ± 2 kg/m3
mass density (20872 kPa): 744.8 ± 2 kg/m3
mass density (20893 kPa): 744.8 ± 2 kg/m3
mass density (20909 kPa): 744.8 ± 2 kg/m3
mass density (20930 kPa): 744.9 ± 2 kg/m3
mass density (20946 kPa): 744.9 ± 2 kg/m3
mass density (20964 kPa): 744.9 ± 2 kg/m3
mass density (20980 kPa): 744.9 ± 2 kg/m3
mass density (20999 kPa): 745 ± 2 kg/m3
mass density (21015 kPa): 744.9 ± 2 kg/m3
mass density (21039 kPa): 744.9 ± 2 kg/m3
mass density (21058 kPa): 744.9 ± 2 kg/m3
mass density (21074 kPa): 744.8 ± 2 kg/m3
mass density (21093 kPa): 744.9 ± 2 kg/m3
mass density (21109 kPa): 745 ± 2 kg/m3
mass density (21128 kPa): 744.9 ± 2 kg/m3
mass density (21144 kPa): 745 ± 2 kg/m3
mass density (21163 kPa): 745 ± 2 kg/m3
mass density (21179 kPa): 744.9 ± 2 kg/m3
mass density (21196 kPa): 745.1 ± 2 kg/m3
mass density (21212 kPa): 745 ± 2 kg/m3
mass density (21228 kPa): 744.9 ± 2 kg/m3
mass density (21247 kPa): 744.9 ± 2 kg/m3
mass density (21266 kPa): 745.1 ± 2 kg/m3
mass density (21283 kPa): 745.1 ± 2 kg/m3
mass density (21304 kPa): 745 ± 2 kg/m3
mass density (21320 kPa): 745.2 ± 2 kg/m3
mass density (21339 kPa): 745.1 ± 2 kg/m3
mass density (21361 kPa): 745.1 ± 2 kg/m3
mass density (21381 kPa): 745.2 ± 2 kg/m3
mass density (21397 kPa): 745.2 ± 2 kg/m3
mass density (21417 kPa): 745.2 ± 2 kg/m3
mass density (21436 kPa): 745.1 ± 2 kg/m3
mass density (21453 kPa): 745.1 ± 2 kg/m3
mass density (21470 kPa): 745.2 ± 2 kg/m3
mass density (21492 kPa): 745 ± 2 kg/m3
mass density (21514 kPa): 745.1 ± 2 kg/m3
mass density (21534 kPa): 745.2 ± 2 kg/m3
mass density (21559 kPa): 745.2 ± 2 kg/m3
mass density (21576 kPa): 745.2 ± 2 kg/m3
mass density (21596 kPa): 745.3 ± 2 kg/m3
mass density (21619 kPa): 745.3 ± 2 kg/m3
mass density (21641 kPa): 745.2 ± 2 kg/m3
mass density (21661 kPa): 745.2 ± 2 kg/m3
mass density (21681 kPa): 745.2 ± 2 kg/m3
mass density (21704 kPa): 745.4 ± 2 kg/m3
mass density (21724 kPa): 745.3 ± 2 kg/m3
mass density (21747 kPa): 745.4 ± 2 kg/m3
mass density (21764 kPa): 745.4 ± 2 kg/m3
mass density (21789 kPa): 745.5 ± 2 kg/m3
mass density (21810 kPa): 745.3 ± 2 kg/m3
mass density (21827 kPa): 745.3 ± 2 kg/m3
mass density (21847 kPa): 745.5 ± 2 kg/m3
mass density (21865 kPa): 745.5 ± 2 kg/m3
mass density (21885 kPa): 745.4 ± 2 kg/m3
mass density (21900 kPa): 745.3 ± 2 kg/m3
mass density (21924 kPa): 745.5 ± 2 kg/m3
mass density (21947 kPa): 745.5 ± 2 kg/m3
mass density (21965 kPa): 745.4 ± 2 kg/m3
mass density (21983 kPa): 745.4 ± 2 kg/m3
mass density (22000 kPa): 745.4 ± 2 kg/m3
mass density (22018 kPa): 745.5 ± 2 kg/m3
mass density (22037 kPa): 745.5 ± 2 kg/m3
mass density (22053 kPa): 745.5 ± 2 kg/m3
